# Data from patent US4719200A, “Amino acid derivatives and antihypertensive drugs containing the same” (Ajinomoto Co., Inc., priority 1984, dated 1988).
# Square brackets hold non-standard residues; d marks the D form. Peptide text beside a SMILES is read from it. * marks the point of attachment. pGlu = O=C1CC[C@@H](C(=O)O)N1; Cbz = O=C(OCc1ccccc1)*; PhAc = O=C(Cc1ccccc1)*; Boc = CC(C)(C)OC(=O)*; Propionyl = CCC(=O)*; Bz = O=C(c1ccccc1)*
# Test system: spontaneously hypertensive rates (SHR rats)
# Test: Measurement of change in blood pressure (systolic, indirect, conscious rats) after one oral dose
# Format: in vivo, rat
# Conditions: for Systolic Blood Pressure, Lowest Value: after administration; for Δ Blood Pressure (systolic): lowest value minus value before administration
# Procedure: The antihypertensive activities of the amino acid derivatives as prepared above were determined.
# As subject animals, there were used 5 spontaneously hypertensive rates (SHR rats) which had been sufficiently trained and confirmed to be hypertensive (mode, the body weight of 400 g) per a sample.
# As an instrument for measuring the blood pressure there was used Programmed Electro-Sphygmomanometer PE-300 (Narco Co., U.S.A.), and the blood pressure was indirectly measured on conscious rats.
# An aqueous solution of a sample (0.05 m mole/kg) was once force-fed into the stomach by means of a […] probe. As a control, the water as deionized was fed to the same animals as above.
# [1] = second table (Examples 25-43), before administration
# [2] = SHR rats, 5 per sample, before single force-feeding into the stomach of 0.05 m mole/kg aqueous solution
# [3] = SHR rats, single force-feeding into the stomach, 0.05 m mole/kg
Compound,Hrs. After Admin. (of lowest systolic blood pressure value) (second table (Examples 25-43)) [h],"Systolic Blood Pressure, Lowest Value (second table (Examples 25-43))","Systolic Blood Pressure, Value Before Administration [1]",Δ Blood Pressure (systolic) (second table (Examples 25-43)),"Systolic Blood Pressure, Value Before Administration [2] [mm Hg]",Hours after administration (of lowest systolic blood pressure value) [3] [h],"Systolic Blood Pressure, Lowest value after administration [3] [mm Hg]",Δ Blood Pressure (systolic) [3] [mm Hg]
"CCS(=O)(=O)N[C@@H](CO)C(=O)N1CCC[C@H]1C(=O)N1CCC[C@H]1C(=O)[O-].[Na+] [Example 42, N--ethane sulfonyl-L-seryl-L-prolyl-L-proline sodium salt]",24,200,220,-20,,,,
"C[C@@H](C(=O)N1CCC[C@H]1C(=O)N1CCC[C@H]1C(=O)O)N1C(=O)c2ccccc2C1=O [Example 8, N-phthaloyl-L-alanyl-L prolyl-L-proline]",,,,,225,4,207,-18
"CCOC(=O)N[C@@H](CCCNC(=N)N)C(=O)N1CCC[C@H]1C(=O)N1CCC[C@H]1C(=O)O [Example 34, N--ethoxycarbonyl-L-arginyl-L-prolyl-L-proline]",4,192,203,-11,,,,
"CCOC(=O)N[C@@H](CCC(=O)O)C(=O)N1CCC[C@H]1C(=O)O [Example 33, N--ethoxycarbonyl-L-glutamyl-L-proline]",8,202,220,-18,,,,
"C[C@H](NC(=O)OC(C)(C)C)C(=O)N1CCC[C@H]1C(=O)N1CCC[C@H]1C(=O)O [Example 16, N-t-butyloxycarbonyl-L-alanyl-L-prolyl-L-proline] (Boc-Ala-Pro-Pro-OH)",,,,,,,173,-21
"C[C@H](NC(=O)Cc1ccccc1)C(=O)N1CCC[C@H]1C(=O)N1CCC[C@H]1C(=O)O [Example 14, N-phenylacetyl-L-alanyl-L-prolyl-L-proline] (PhAc-Ala-Pro-Pro-OH)",,,,,,,175,-24
"CC[C@H](C)[C@H](NS(=O)(=O)CC)C(=O)N1CCC[C@H]1C(=O)N1CCC[C@H]1C(=O)O.[Na] [Example 37, N--ethanesulphonyl-L-isoleucyl-L-prolyl-proline sodium salt]",8,194,218,-22,,,,
"CCS(=O)(=O)N[C@@H](CCC(=O)O)C(=O)N1CCC[C@H]1C(=O)N1CCC[C@H]1C(=O)O [Example 40, N--ethane sulfonyl-L-glutamyl-L-prolyl-L proline]",8,202,220,-18,,,,
"CCOC(=O)N[C@@H](CO)C(=O)N1CCC[C@H]1C(=O)N1CCC[C@H]1C(=O)O [Example 35, N--Ethoxycarbonyl-L-seryl-L-prolyl-L-proline]",8,195,220,-25,,,,
"CCS(=O)(=O)N[C@@H](C)C(=O)N1CCC[C@H]1C(=O)N1CCC[C@H]1C(=O)O [Example 12, N-ethanesulfonyl-L-alanyl-L prolyl-L-proline]",,,,,204,24,159,-45
"CCOC(=O)N[C@@H](Cc1ccccc1)C(=O)N1CCC[C@H]1C(=O)N1CCC[C@H]1C(=O)O.[Na] [Example 31, N--ethoxycarbonyl-L-phenylalanyl-L-prolyl-L-proline sodium salt]",24,199,216,-17,,,,
"O=C(N[C@@H](Cc1ccccc1)C(=O)N1CCC[C@H]1C(=O)N1CCC[C@H]1C(=O)O)c1ccccc1.[Na] [Example 26, N--Benzoyl-L-phenylalanyl-L-prolyl-L-proline sodium salt] (Bz-Phe-Pro-Pro-OH)",8,194,228,-34,,,,
"CCOC(=O)N[C@@H](CCSC)C(=O)N1CCC[C@H]1C(=O)N1CCC[C@H]1C(=O)[O-].[Na+] [Example 36, N--Ethoxycarbonyl-L-methionyl-L-prolyl-L proline sodium salt]",8,206,223,-17,,,,
"C[C@H](NC(=O)[C@@H]1CCC(=O)N1)C(=O)N1CCC[C@H]1C(=O)N1CCC[C@H]1C(=O)O [Example 21, L-pyroglutamyl-L-alanyl-L-prolyl-L-proline] ([pGlu]APP-OH)",,,,,,,190,-29
"O=C(O)[C@@H]1CCCN1C(=O)[C@@H]1CCCN1C(=O)[C@H](CO)NCc1ccccc1 [Example 29, N--benzyl-L-seryl-L-prolyl-L-proline]",8,192,214,-22,,,,
"O=C(NCC(=O)N1CCC[C@H]1C(=O)N1CCC[C@H]1C(=O)O)c1ccccc1 [Example 27, N--benzoyl-glycyl-L-prolyl-L-proline] (Bz-Gly-Pro-Pro-OH)",8,209,232,-23,,,,
"C[C@H](NC(=O)c1ccccn1)C(=O)N1CCC[C@H]1C(=O)N1CCC[C@H]1C(=O)O [Example 5, N-picolinoyl-L-alanyl-L-prolyl-L-proline]",,,,,,,175,-22
N-benzylsulfonyl-L-alanyl-L-prolyl-L-proline L-arginine salt [Example 11],,,,,202,8,174,-28
"CCOC(=O)NCC(=O)N1CCC[C@H]1C(=O)N1CCC[C@H]1C(=O)O.[Na] [Example 32, N--ethoxycarbonyl-glycyl-L-prolyl-L-proline sodium salt]",8,193,215,-22,,,,
"C[C@H](NC(=O)OCc1ccccc1)C(=O)N1CCC[C@H]1C(=O)N1CCC[C@H]1C(=O)O.NC(N)=NCCC[C@H](N)C(=O)O [Example 15, N-benzyloxycarbonyl-L-alanly-L-prolyl-L-proline L-arginine salt] (Cbz-Ala-Pro-Pro-OH)",,,,,205,4,172,-33
"CCOC(=O)N[C@@H](C)C(=O)N1CCC[C@H]1C(=O)N1CCC[C@H]1C(=O)O [Example 1, N-ethoxycarbonyl-L-alanyl-L-prolyl-L-proline]",,,,,,,155,-38
"C[C@H](NC(=O)c1ccccc1)C(=O)N1CCC[C@H]1C(=O)N1CCC[C@H]1C(=O)O [Example 13, N-benzoyl-L-alanyl-L-prolyl-L-proline] (Bz-Ala-Pro-Pro-OH)",,,,,,,177,-43
"C[C@H](NC(=O)c1cccs1)C(=O)N1CCC[C@H]1C(=O)N1CCC[C@H]1C(=O)O [Example 6, N-(2-thenoyl)-L-alanyl-L-prolyl-L-proline]",,,,,,,182,-20
"CC[C@H](C)[C@H](NC(=O)c1ccccc1)C(=O)N1CCC[C@H]1C(=O)N1CCC[C@H]1C(=O)O [Example 25, N--benzoyl-L-isoleucyl-L-prolyl-L-proline] (Bz-Ile-Pro-Pro-OH)",8,201,229,-28,,,,
"CCC(=O)N[C@@H](C)C(=O)N1CCC[C@H]1C(=O)N1CCC[C@H]1C(=O)O [Example 4, N-propionyl-L-alanyl-L-prolyl-L-proline] (Propionyl-Ala-Pro-Pro-OH)",,,,,,,173,-24
N-(3-phenylpropionyl)-L-alanyl-L-prolyl-L-proline L-arginine salt [Example 2],,,,,190,24,154,-36
N-phenylcarbamoyl-L-alanyl-L-prolyl-L-proline L-arginine salt [Example 17],,,,,218,24,203,-15
